Measured values: paper PMC10539733, “Fluorine NMR study of proline-rich sequences using fluoroprolines” (Magnetic resonance, 2021)
Values joined by “and” are separate entries in the source; they are usually repeats but may differ in a detail not shown here. Equal entries are not always repeated. Where two headings read alike, the source gives them in different places. Each block holds one molecule with its values, some of them ahead of it. Square brackets hold non-standard residues; d marks the D form. Ends that are not written are not given here. Peptide text beside a SMILES is read from it. Pro(trans-4-F) = O=C(O)[C@@H]1C[C@@H](F)CN1; Pro(cis-4-F) = O=C(O)[C@@H]1C[C@H](F)CN1

Experiments:
Vinexin β SH3.3 domain [1] = target: T1, Vinexin β SH3.3 domain (Homo sapiens, UniProt O60504); experiment: 19F line width (apparent transverse relaxation) analysis of binding kinetics during titration; settings: fast exchange approximation, 298 K
T1 construct: The Vinexin β SH3.3 was obtained using recombinant expression of a glutathione-S-transferase (GST) fusion protein; GST (N, cleaved yes); made in house; host or cells: Escherichia coli (pGEX plasmids)
T1 sequence (O60504 612-671 limits assumed): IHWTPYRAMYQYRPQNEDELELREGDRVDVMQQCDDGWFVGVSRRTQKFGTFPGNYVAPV
Description: The exchange line broadening during the titration experiment also reports on the binding kinetics. Thus, the major ^19 F peaks were fitted using a Lorentzian line shape and the line widths obtained in this way provide an estimate of the apparent transverse relaxation constant R2‡ as a function of peptide concentration (Fig. 7b and c), which can be used to derive the binding kinetics. […]
Processing of 1D ^19 F spectra and quantification were performed using an open-source Python package dedicated to Fourier spectroscopies called “Spectrometry Processing Innovative Kernel” (SPIKE) (Chiron et al., 2016). […] Line fitting was done using the least-square minimizer of the Scipy optimize toolbox to find the optimal set of the signal parameters minimizing the squared differences between the experimental and calculated spectra. […]
Titrations were performed by successive addition of stock peptide solutions to a sample of SH3 protein at 314 µM in a 3 mm NMR tube. […] For every titration point, a 1D ^19 F spectrum and a ^1 H– ^15 N HSQC were recorded at 298K on the same spectrometer, taking advantage of the QCI-F probe. The ^1 H– ^15 N HSQC was recorded using the standard pulse sequence and a 3-9-19 WATERGATE water suppression element. The 200 points were recorded in the indirect dimension to achieve a final resolution of 7.0 and 18.8 Hz per point in the acquisition and indirect dimensions, respectively. […]

Vinexin β SH3.3 domain [2] = target: T1, Vinexin β SH3.3 domain; experiment: NMR titration, 1H-15N HSQC chemical shift perturbations of 15N-labelled SH3 domain; assay type: binding
Description: In order to measure the binding affinities between the Vinexin β SH3.3 domain and the model peptides, a titration experiment was performed where increasing amounts of peptide were added to a solution of ^15 N-labelled SH3 domain. Apart from MpRS and MpSR peptides, a titration was also performed with a non-fluorinated reference peptide. Just as for most SH3–PRM interaction studies, a gradual frequency shift of a subset of ^1 H– ^15 N correlation peaks in the ^1 H– ^15 N HSQC spectra was observed, indicative of fast exchange between bound and free states of the protein (Fig. 6a). Under this exchange regime, the chemical shifts provide an accurate measure of the bound protein fraction, enabling the determination of an equilibrium dissociation constant Kd (vide infra).
The MpRS and MpSR peptides were produced by solid-phase synthesis using fluorenylmethyloxycarbonyl (Fmoc) amino acids using a model 431A peptide synthesizer from Applied Biosystems (Foster City, CA, USA). Fmoc-protected (4 R )- and (4 S )-FPro amino acids were purchased from Bachem SA. Peptides were purified by reversed-phase HPLC and checked by electrospray ionization and time of flight mass spectrometry (ESI-TOF). The Vinexin β SH3.3 was obtained using recombinant expression of a glutathione-S-transferase (GST) fusion protein in Escherichia coli using pGEX plasmids (Lalevée et al., 2010). After thrombin cleavage, the protein was purified using size-exclusion chromatography and eluted with phosphate buffer (40 mM phosphate, NaCl 100 mM, DTT 2 mM, pH 7). Before titration experiments, a dialysis was performed using 1 and 3 kDa cut-off membrane for the peptide and the protein, respectively, and a common dialysis bath containing the buffer used in interaction experiments. Protein concentrations were determined by measuring the optical density (OD) at 280 nm (molar absorption coefficient 11 460 M ^-1 cm ^-1 ). Peptide concentrations were measured by ^1 H NMR by comparing the integrals of peptide resonances with those of tryptophan of known concentration in a sample containing small amounts (10–30 µM ) of both compounds in D 2 O as described (Kohler et al., 2015). For assignments, lyophilized powder of MpRS and MpSR peptides were dissolved in 170 µL of D 2 O for a final concentration of 1 mM in 3 mm tubes.
Titrations were performed by successive addition of stock peptide solutions to a sample of SH3 protein at 314 µM in a 3 mm NMR tube. In order to reduce the dilution of the initial protein solution and keep the aliquot volumes within values compatible with low pipetting errors (1 to 3 µL ), initial aliquots were added using stock solutions diluted by a factor of 2. The concentrations of the stock solutions were 5.1 and 5.7 mM for MpSR and MpRS, respectively. For every titration point, a 1D ^19 F spectrum and a ^1 H– ^15 N HSQC were recorded at 298K on the same spectrometer, taking advantage of the QCI-F probe. The ^1 H– ^15 N HSQC was recorded using the standard pulse sequence and a 3-9-19 WATERGATE water suppression element. The 200 points were recorded in the indirect dimension to achieve a final resolution of 7.0 and 18.8 Hz per point in the acquisition and indirect dimensions, respectively. The relaxation delay was set to 1 s resulting in a total acquisition time of 16 min. The 1D ^19 F spectra were recorded with a spectral width of 22.522 kHz. The number of scans was adapted to achieve a sufficient signal-to-noise ratio for each concentration of peptide. For the first titration point, at a peptide concentration of 50 µM , 1600 scans were recorded for a total acquisition time of 1 h and 6 min, while 250 scans (10 min acquisition time) were used for the large peptide concentrations.
The composite chemical shift was calculated using […], where ΔδN and ΔδH are the ^15 N and proton chemical shift differences measured between the free protein and the protein in the presence of a given amount of peptide. […]

[3] = target: T2, Vinexin β SH3.3 domain (third SH3 domain of the Vinexin β protein) (UniProt O60504 612-671); experiment: NMR titration; 19F line widths (apparent R2) of the peptide against peptide concentration during the titration, fast-exchange approximation; kon fitted independently for each 19F signal, Kd taken from the shift fit; settings: both partners purified
T2 construct: Vinexin β, third SH3 domain (SH3.3); 15N-labelled for the titrations; source: E. coli, GST fusion protein (pGEX plasmids), thrombin cleavage, purified (size-exclusion chromatography)
T2 sequence (looked up): T1 sequence (O60504 612-671 limits assumed)

[4] = target: T2, Vinexin β SH3.3 domain (third SH3 …); experiment: NMR titration; same kind of titration, 298 K; only the 1H-15N chemical shift perturbations of the SH3 domain fitted, 1:1 model; settings: both partners purified
[5] = target: T2, Vinexin β SH3.3 domain (third SH3 …); experiment: NMR titration; peptide stock added stepwise to 15N-labelled SH3 at 314 µM in a 3 mm tube, 298 K; 19F shifts of the peptide and 1H/15N shifts of the SH3 fitted simultaneously; 1:1 and 1:2 models compared; settings: both partners purified

- kon (Vinexin β SH3.3 domain [1]; from 19F line widths of (4 R )-FPro8 signal, read-out: association kinetics constant kon, (4 R )-FPro8 signal): 1.2e+08 M⁻¹ s⁻¹
- kon (Vinexin β SH3.3 domain [1]; from 19F line widths of (4 S )-FPro4 signal, read-out: association kinetics constant kon, (4 S )-FPro4 signal): 9e+07 M⁻¹ s⁻¹
Molecule: CC(C)[C@H](NC(=O)[C@H](CCCNC(=N)N)NC(=O)[C@@H]1CCCN1C(=O)[C@@H]1CCCN1C(=O)[C@@H]1CCCN1C(=O)[C@@H]1C[C@@H](F)CN1C(=O)[C@@H]1CCCN1C(=O)[C@H](CO)NC(=O)[C@@H]1CCCN1C(=O)[C@@H]1C[C@H](F)CN1C(=O)[C@@H]1CCCN1C(=O)[C@@H]1CCCN1C(=O)[C@@H]1CCCN1)C(=O)N[C@@H](Cc1ccc(O)cc1)C(=O)N[C@@H](CCCCN)C(=O)O [MpSR] (H-PPP[Pro(cis-4-F)]PSP[Pro(trans-4-F)]PPPRVYK-OH)

- 1H-15N composite chemical shift perturbation, Asn 15 (Vinexin β SH3.3 domain [2]; Vinexin β residue Asn 15): 1.093
- 1H-15N composite chemical shift perturbation, Asp 17 (Vinexin β SH3.3 domain [2]; Vinexin β residue Asp 17): 2.276
- 1H-15N composite chemical shift perturbation, Gln 14 (Vinexin β SH3.3 domain [2]; Vinexin β residue Gln 14): 1.949
- 1H-15N composite chemical shift perturbation, Gly 49 (Vinexin β SH3.3 domain [2]; Vinexin β residue Gly 49): 0.812
- 1H-15N composite chemical shift perturbation, Leu 21 (Vinexin β SH3.3 domain [2]; Vinexin β residue Leu 21): 0.988
- 1H-15N composite chemical shift perturbation, Thr 50 (Vinexin β SH3.3 domain [2]; Vinexin β residue Thr 50): 1.881
- 1H-15N composite chemical shift perturbation, Trp 37 (Vinexin β SH3.3 domain [2]; Vinexin β residue Trp 37): 2.011
- 1H-15N composite chemical shift perturbation, Val 39 (Vinexin β SH3.3 domain [2]; Vinexin β residue Val 39): 3.214
- 1H-15N composite chemical shift perturbation, Val 56 (Vinexin β SH3.3 domain [2]; Vinexin β residue Val 56): 1.319
Molecule: CC(C)[C@H](NC(=O)[C@H](CCCNC(=N)N)NC(=O)[C@@H]1CCCN1C(=O)[C@@H]1CCCN1C(=O)[C@@H]1CCCN1C(=O)[C@@H]1CCCN1C(=O)[C@@H]1CCCN1C(=O)[C@H](CO)NC(=O)[C@@H]1CCCN1C(=O)[C@@H]1CCCN1C(=O)[C@@H]1CCCN1C(=O)[C@@H]1CCCN1C(=O)[C@@H]1CCCN1)C(=O)N[C@@H](Cc1ccc(O)cc1)C(=O)N[C@@H](CCCCN)C(=O)O [non-fluorinated peptide] (H-PPPPPSPPPPPRVYK-OH; N-terminus and C-terminus assumed)

- kon [3]: 9e+07 M⁻¹ s⁻¹ and 1.2e+08 M⁻¹ s⁻¹
- Kd [4]: 75 µM
- Kd [5]: 96 ± 30 µM
- stoichiometry N [5]: 1
B1: MpSR peptide (peptide)
peptide: PPP[Pro(cis-4-F)]PSP[Pro(trans-4-F)]PPPRVYK
notes: P at 4 and 8 stand for fluoroprolines; Two segments of five prolines separated by one serine, followed by RVYK; source: synthetic peptide (Fmoc solid-phase synthesis, reversed-phase HPLC)

- Kd [4]: 74 ± 25 µM
B2: non-fluorinated reference peptide (peptide)
chain: PPPPPSPPPPPRVYK
modifications: Synthetic RAR-gamma-based peptide. Sequence converted from the three-letter residue list in Table 1 (Pro1-5, Ser6, Pro7-11, Arg12-Val13-Tyr14-Lys15), with plain proline at positions 4 and 8. The …

- Kd [4]: 220 µM
- Kd [5]: 273 ± 30 µM
- stoichiometry N [5]: 1
B3: MpRS peptide (peptide)
peptide: PPP[Pro(trans-4-F)]PSP[Pro(cis-4-F)]PPPRVYK
notes: P at 4 and 8 stand for fluoroprolines; source: synthetic peptide (Fmoc solid-phase synthesis, reversed-phase HPLC)
